The values that follow are results of earlier work, collected in US10828311B2, “Controlled release compositions and their methods of use” (BAYER NEW ZEALAND LTD, priority 2012, dated 2020).

Values after ≈ are worked out from the molar mass of the structure shown.

This data set concerns microbes. Particulars: for Cloxacillin in New Zealand.

For the molecule `Cc1onc(-c2ccccc2Cl)c1C(=O)N[C@@H]1C(=O)N2[C@@H]1SC(C)(C)[C@@H]2C(=O)O` [Cloxacillin, cloxacillin], the MIC90 is 0.5 µg/mL (≈ 1.15 µM).
